Key:
Assay in all cases: relative viability (nuclei count vs DMSO), 5 days (fraction); higher = more cells survive
[1] = compound: C1CNCCC1C2=CC(=NN2)C3=CC=NC=C3 + Cc1nc(NC(=O)N2CCC[C@H]2C(N)=O)sc1-c1ccnc(C(C)(C)C(F)(F)F)c1 [Alpelisib] (partner 2 µM)
Summary of the method: (§1)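 Cells from lung cancer lines were seeded into 1536-well plates and, one day later, dosed by pin tool. Treatments were either a single drug or a fixed dose of an anchor drug with five library-drug doses (not always all listed) in √10 steps. After 5 days, nuclei were stained in a one-step fixation (final 0.05% Triton X-100, 1% formaldehyde, 1 ug/ml Hoechst) and counted on 4× images, and relative viability is the treated-to-vehicle nuclei ratio, as the median of duplicate plates.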

[2] = compound: C[C@@H](N)c1ccc(C(=O)Nc2ccnc3[nH]ccc23)cc1 + CC(=O)Nc1cccc(-n2c(=O)n(C3CC3)c(=O)c3c(Nc4ccc(I)cc4F)n(C)c(=O)c(C)c32)c1 [Trametinib] (partner 0.02 µM)
Summary of the method: as §1

[3] = compound: C[C@@H](N)c1ccc(C(=O)Nc2ccnc3[nH]ccc23)cc1 + O=C(CCCCCCC(=O)Nc1ccccc1)NO [Vorinostat] (partner 1 µM)
Summary of the method: as §1

Tanzisertib + Dasatinib = compound: O[C@H]1CC[C@H](Nc2ncc3nc(Nc4c(F)cc(F)cc4F)n([C@H]4CCOC4)c3n2)CC1 [Tanzisertib] + Cc1nc(Nc2ncc(C(=O)Nc3c(C)cccc3Cl)s2)cc(N2CCN(CCO)CC2)n1 [Dasatinib] (partner 0.075 µM)
Summary of the method: as §1

Cell Line	relative viability ([1]; first compound 0.08 µM)	relative viability ([1]; first compound 0.8 µM)	relative viability ([1]; first compound 2.53 µM)	relative viability ([1]; first compound 8 µM)	relative viability ([2]; first compound 0.04 µM)	relative viability ([2]; first compound 0.1265 µM)	relative viability ([2]; first compound 0.4 µM)	relative viability ([2]; first compound 1.265 µM)	relative viability ([2]; first compound 4 µM)	relative viability ([3]; first compound 0.04 µM)	relative viability ([3]; first compound 0.1265 µM)	relative viability ([3]; first compound 0.4 µM)	relative viability ([3]; first compound 1.265 µM)	relative viability ([3]; first compound 4 µM)	relative viability (Tanzisertib + Dasatinib; first compound 0.08 µM)	relative viability (Tanzisertib + Dasatinib; first compound 0.253 µM)	relative viability (Tanzisertib + Dasatinib; first compound 0.8 µM)	relative viability (Tanzisertib + Dasatinib; first compound 2.53 µM)	relative viability (Tanzisertib + Dasatinib; first compound 8 µM)
NCI-H1734	0.684	0.618	0.768	0.706	0.735	0.698	0.708	0.668	0.582	0.701	0.791	0.823	0.576	0.806	0.47	0.449	0.459	0.473	0.444
EPLC-272H	0.99	0.774	0.953	0.983	0.299	0.283	0.358	–	0.267	0.548	0.567	0.497	0.352	0.351	0.416	0.373	0.367	0.359	0.333
NCI-H2126	0.761	0.634	0.777	0.752	0.515	0.561	0.534	0.637	0.676	1.02	0.685	0.738	0.432	0.916	0.614	0.626	0.614	0.628	0.572

Reference: the supplement of paper PMC10307832
